Values quoted from earlier work as cited in patent US6241994A, “Solid TCMTB formulations” (Buckman Laboratories International, Inc., priority 1998, dated 2001).

How the values were obtained:
[1] = for pH above which the substance decomposes: decomposition at a pH above the value
[2] = unstable at temperatures greater than the value

Row | SMILES | solubility in most of organic solvents (most of organic solvents) | stability in acidic systems ([1]; acidic systems, ambient temperature) | pH above which the substance decomposes [1] | temperature above which considered unstable [2] | solubility in water (in water)
1 | N#CSCSC#N [MTC, methylene bisthiocyanate] | soluble | stable | above 7.5 | greater than 100 °C | –
2 | N#CSCSc1nc2ccccc2s1 [TCMTB, 2-(thiocyanomethylthio)-benzothiazole] | – | – | above 8.0 | – | about 0.033 g/l
